In ChEMBL document CHEMBL1201862, “PubChem BioAssay data set” (2004):
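Results reflect a 48-hour exposure of cells in 96-well plates to compound at five concentrations. At the GI50, growth is halved.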 Calls of active or inactive are those of the source. No stated cut-off is given here; in the data, active = GI50 up to about 1.1 µM and inactive = higher.

Legend:
Experiment in all cases: growth of human tumour cells (NCI), 48 h
SF-539 = system: SF-539
HCC 2998 = system: HCC 2998
NCI/ADR-RES = system: NCI/ADR-RES
HCT-15 = system: HCT-15
RPMI-8226 = system: RPMI-8226
EKVX = system: EKVX
UACC-257 = system: UACC-257
MOLT-4 = system: MOLT-4
SK-MEL-2 = system: SK-MEL-2
SR = system: SR
Malme-3M = system: Malme-3M
UACC-62 = system: UACC-62
SK-MEL-28 = system: SK-MEL-28
MDA-MB-435 = system: MDA-MB-435
SK-MEL-5 = system: SK-MEL-5
NCI-H226 = system: NCI-H226
786-0 = system: 786-0
SK-OV-3 = system: SK-OV-3
SF-295 = system: SF-295
A549 = system: A549

Row | SMILES | GI50 (SF-539) | GI50 (HCC 2998) | GI50 (NCI/ADR-RES) | GI50 (HCT-15) | GI50 (RPMI-8226) | GI50 (EKVX) | GI50 (UACC-257) | GI50 (MOLT-4) | GI50 (SK-MEL-2) | GI50 (SR) | GI50 (Malme-3M) | GI50 (UACC-62) | GI50 (SK-MEL-28) | GI50 (MDA-MB-435) | GI50 (SK-MEL-5) | GI50 (NCI-H226) | GI50 (786-0) | GI50 (SK-OV-3) | GI50 (SF-295) | GI50 (A549)
1 | Clc1ccccc1-c1nn2c(CCCCCCCCc3nnc4sc(-c5ccccc5Cl)nn34)nnc2s1 | > 100 µM (inactive) | > 100 µM (inactive) | > 100 µM (inactive) | > 100 µM | 54 µM (inactive) | > 100 µM (inactive) | > 100 µM (inactive) | 16.5 µM (inactive) | > 100 µM (inactive) | > 100 µM (inactive) | > 100 µM (inactive) | > 100 µM (inactive) | > 100 µM (inactive) | > 100 µM (inactive) | 63.1 µM (inactive) | > 100 µM (inactive) | > 100 µM (inactive) | > 100 µM (inactive) | > 100 µM (inactive) | > 100 µM (inactive)
2 | COc1ccc(C(=O)/C=C/c2ccc(O)c(O)c2)c(OC)c1 | 0.834 µM (active) | 1.21 µM (inactive) | 2.75 µM (inactive) | 0.292 µM | 0.7 µM (active) | 11.8 µM (inactive) | 3.87 µM (inactive) | 2.79 µM (inactive) | 2.77 µM (inactive) | 0.337 µM (active) | 4.65 µM (inactive) | 2.98 µM (inactive) | 7.6 µM (inactive) | 0.47 µM (active) | 1.85 µM (inactive) | 6.64 µM (inactive) | 5.21 µM (inactive) | 5.15 µM (inactive) | 3.66 µM (inactive) | 14 µM (inactive)
3 | CCOc1c(OC)cc(-c2nc3n(n2)C(=O)C(CC)S3)cc1OC (stereo not given) | > 10 µM (inactive) | > 10 µM (inactive) | > 10 µM (inactive) | > 10 µM | > 10 µM (inactive) | > 10 µM (inactive) | > 10 µM (inactive) | > 10 µM (inactive) | > 10 µM (inactive) | > 10 µM (inactive) | > 10 µM (inactive) | > 10 µM (inactive) | > 10 µM (inactive) | > 10 µM (inactive) | > 10 µM (inactive) | > 10 µM (inactive) | > 10 µM (inactive) | > 10 µM (inactive) | > 10 µM (inactive) | > 10 µM (inactive)
4 | CN(C)/N=C1\C=C2CC[C@H](O[Si](C)(C)C(C)(C)C)[C@@]2(C)CC1 | 26.2 µM (inactive) | 16.9 µM (inactive) | 18.2 µM (inactive) | 17.6 µM | 4.4 µM (inactive) | 21.7 µM (inactive) | 16.7 µM (inactive) | 12.9 µM (inactive) | 16.2 µM (inactive) | 18.6 µM (inactive) | 15.6 µM (inactive) | 15.1 µM (inactive) | 15.9 µM (inactive) | 16.4 µM (inactive) | 12.4 µM (inactive) | 20.3 µM (inactive) | 18 µM (inactive) | 24.9 µM (inactive) | 16.4 µM (inactive) | 19.5 µM (inactive)
5 | CC1CC[C@@]2(OC1)OC1C[C@H]3[C@@H]4CC[C@H]5CC(OC6OC(CO)C(O)C(OC7OC(CO)C(OC8OC(CO)C(O)C(OC9OC(CO)C(O)C(O)C9O)C8OC8OC(CO)C(O)C(O)C8O)C(O)C7O)C6O)[C@H](O)CC5(C)[C@H]4CCC3(C)C1[C@@H]2C (stereo not given in full) | 1.87 µM (inactive) | 1.43 µM (inactive) | 4.72 µM (inactive) | 9.48 µM | 2.55 µM (inactive) | 4.15 µM (inactive) | 8.75 µM (inactive) | 5.18 µM (inactive) | 3.27 µM (inactive) | 1.11 µM (active) | 8.18 µM (inactive) | 8.69 µM (inactive) | 7.45 µM (inactive) | 6.59 µM (inactive) | 6.95 µM (inactive) | 6.53 µM (inactive) | 1.88 µM (inactive) | 6.95 µM (inactive) | 2.99 µM (inactive) | 9.4 µM (inactive)
6 | Cc1cnc2[nH]c(-c3cccc(F)c3)cc(=O)c2c1 | 0.0326 µM (active) | 0.111 µM (active) | 0.0146 µM (active) | 0.0267 µM | 0.0402 µM (active) | 0.2 µM (active) | > 100 µM (inactive) | 0.0531 µM (active) | 0.0802 µM (active) | 0.0229 µM (active) | 0.0232 µM (active) | 0.0392 µM (active) | 0.0352 µM (active) | < 0.01 µM (active) | 0.0329 µM (active) | 0.0432 µM (active) | 0.0384 µM (active) | 0.0368 µM (active) | 0.0322 µM (active) | 0.0515 µM (active)
7 | Cc1ccc(S(=O)(=O)NNC(=S)Nc2cccc3ccccc23)cc1 | 80.4 µM (inactive) | 53.8 µM (inactive) | 38.1 µM (inactive) | 67.5 µM | 37.4 µM (inactive) | 38.3 µM (inactive) | 13.8 µM (inactive) | 38.1 µM (inactive) | 4.45 µM (inactive) | 46.3 µM (inactive) | 33.3 µM (inactive) | 32.1 µM (inactive) | 54.1 µM (inactive) | 41.5 µM (inactive) | 17.8 µM (inactive) | 29.4 µM (inactive) | 14.2 µM (inactive) | 43.3 µM (inactive) | 34.7 µM (inactive) | 49.4 µM (inactive)
8 | COc1ccc2c[n+](C)c3c4cc(OC)c(OC)cc4ccc3c2c1 | 10.7 µM (inactive) | 8.11 µM (inactive) | > 100 µM (inactive) | > 41.9 µM | 2.96 µM (inactive) | 13.1 µM (inactive) | 20.7 µM (inactive) | 3.85 µM (inactive) | 10.9 µM (inactive) | 2.87 µM (inactive) | 7.6 µM (inactive) | 18.5 µM (inactive) | 18.9 µM (inactive) | 13.7 µM (inactive) | 14.7 µM (inactive) | 15.5 µM (inactive) | 2.39 µM (inactive) | 2.99 µM (inactive) | 5.13 µM (inactive) | 0.53 µM (active)
9 | c1ccc2c(c1)CCc1c-2n(CCN2CCOCC2)c2ccccc12 | 37.9 µM (inactive) | 14.3 µM (inactive) | > 100 µM (inactive) | > 100 µM | 35.2 µM (inactive) | > 100 µM (inactive) | 32.9 µM (inactive) | 29.9 µM (inactive) | 11.8 µM (inactive) | 15 µM (inactive) | 13.6 µM (inactive) | > 100 µM (inactive) | 34.6 µM (inactive) | > 100 µM (inactive) | 18.8 µM (inactive) | 52.6 µM (inactive) | > 100 µM (inactive) | 26 µM (inactive) | 28.3 µM (inactive) | > 100 µM (inactive)
10 | O=C1C2CC(Cl)C(SSC3CC4C(=O)N(SC(Cl)(Cl)C(Cl)Cl)C(=O)C4CC3Cl)CC2C(=O)N1SC(Cl)(Cl)C(Cl)Cl (stereo not given) | 2.32 µM (inactive) | 4.43 µM (inactive) | 2.06 µM (inactive) | 1.29 µM | 1.81 µM (inactive) | 3.01 µM (inactive) | 2.02 µM (inactive) | 0.192 µM (active) | 1.53 µM (inactive) | 0.229 µM (active) | 1.51 µM (inactive) | 1.69 µM (inactive) | 2.15 µM (inactive) | 1.65 µM (inactive) | 1.97 µM (inactive) | 3.67 µM (inactive) | 1.56 µM (inactive) | 3.39 µM (inactive) | 5.13 µM (inactive) | 2.86 µM (inactive)
11 | CC(C)(C)NC(=O)/C(=C\Sc1ccccc1)c1ccccc1 | > 64 µM (inactive) | > 100 µM (inactive) | > 29 µM (inactive) | > 48.5 µM | 19.6 µM (inactive) | > 74.6 µM (inactive) | > 100 µM (inactive) | 23.2 µM (inactive) | > 100 µM (inactive) | 46.6 µM (inactive) | > 100 µM (inactive) | > 100 µM (inactive) | > 100 µM (inactive) | > 82.8 µM (inactive) | 52.5 µM (inactive) | > 72.1 µM (inactive) | > 100 µM (inactive) | > 100 µM (inactive) | > 100 µM (inactive) | > 100 µM (inactive)
